For this assay, the target named is T1, EpzP (Streptomyces virginiae, UniProt E5KWG9).
T1 construct: pET28a His6-tag, E. coli Rosetta2; tag thrombin-cleaved for structures (EpzPm: lysines reductively methylated, 18 of 19)
T1 sequence (E5KWG9 1-302): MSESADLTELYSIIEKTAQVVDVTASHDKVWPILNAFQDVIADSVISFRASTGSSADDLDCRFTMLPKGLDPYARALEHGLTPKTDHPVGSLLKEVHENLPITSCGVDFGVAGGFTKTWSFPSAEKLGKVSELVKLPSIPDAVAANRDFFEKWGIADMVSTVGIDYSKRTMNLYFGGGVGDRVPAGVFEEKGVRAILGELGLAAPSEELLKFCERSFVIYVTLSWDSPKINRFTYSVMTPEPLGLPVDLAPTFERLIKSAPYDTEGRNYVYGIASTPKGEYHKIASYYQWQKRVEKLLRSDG
Nature of the assay: X-ray crystal structure ([…] A). The format is binding. Particulars: lysine-methylated EpzP; crystal soaked with 5 mM DMSPP, hydrolysed to SPP; diphosphate site; acidic pH.

Here are results for one molecule from paper PMC3485228, “Structure-Based Engineering Increased the Catalytic Turnover Rate of a Novel Phenazine Prenyltransferase” (PLoS ONE, 2012).

For `O=P(O)(O)OP(=O)(O)S` (stereo not shown) [S-thiolodiphosphate], the “X-ray crystal structure (1.67 A)” value was “revealed the presence of a S-thiolodiphosphate (SPP) moiety in the diphosphate binding site”.
